Test results published in the supplement of paper PMC10307832.

Key:
Experiment in all cases: relative viability (nuclei count vs DMSO), 5 days (fraction); higher = more cells survive
[1] = compound: C1COCCN1C2=CC(=O)C3=C(O2)C(=CC=C3)C4=CC=CC5=C4SC6=CC=CC=C56
Outline: (§1)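 Viability was read as treated-well nuclei divided by vehicle-well nuclei, using the median across plates. Lung cancer cell lines in 1536-well plates were kept overnight at 37 °C, pinned with five √10-spaced library-drug doses, and after 5 days were Hoechst-stained, imaged at 4× and counted in MetaXpress. Plates passed only with control CV below 25% and at least one doubling.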

[2] = compound: CCN(CC)CCCCNc1ncc2cc(-c3cc(OC)cc(OC)c3)c(NC(=O)NC(C)(C)C)nc2n1
Outline: as §1

PRIMA-1MET = compound: COCC1(CO)C(=O)C2CCN1CC2 [PRIMA-1MET]
Outline: as §1

Zibotentan = compound: COc1nc(C)cnc1NS(=O)(=O)c1cccnc1-c1ccc(-c2nnco2)cc1 [Zibotentan]
Outline: as §1

[3] = compound: O=c1cc(-c2cccc3c2Sc2ccccc2S3)oc(N2CCOCC2)c1
Outline: as §1

Row | Cell Line | relative viability ([1]; 0.01 µM) | relative viability ([1]; 0.03162 µM) | relative viability ([1]; 0.1 µM) | relative viability ([1]; 0.3162 µM) | relative viability ([1]; 1 µM) | relative viability ([2]; 0.01 µM) | relative viability ([2]; 0.03162 µM) | relative viability ([2]; 0.1 µM) | relative viability ([2]; 0.3162 µM) | relative viability ([2]; 1 µM) | relative viability (PRIMA-1MET; 0.2 µM) | relative viability (PRIMA-1MET; 0.6325 µM) | relative viability (PRIMA-1MET; 2 µM) | relative viability (PRIMA-1MET; 6.325 µM) | relative viability (PRIMA-1MET; 20 µM) | relative viability (Zibotentan; 0.08 µM) | relative viability (Zibotentan; 0.253 µM) | relative viability (Zibotentan; 0.8 µM) | relative viability (Zibotentan; 2.53 µM) | relative viability ([3]; 0.08 µM) | relative viability ([3]; 0.253 µM) | relative viability ([3]; 0.8 µM) | relative viability ([3]; 2.53 µM) | relative viability ([3]; 8 µM)
1 | NCI-H1993 | 0.882 | 0.931 | 1.1 | 0.995 | 0.84 | 0.976 | 0.924 | 1.05 | 1.45 | 0.901 | 1 | 0.767 | 0.824 | 0.92 | 0.955 | 0.966 | 0.871 | 0.913 | 1.04 | 0.84 | 1.05 | 0.846 | 0.824 | 0.826
2 | NCI-H2228 | 1.25 | 0.89 | 0.981 | 0.821 | 1.03 | 0.984 | 1.06 | 1.26 | 1.16 | 0.941 | 0.99 | 0.964 | 1.07 | 1.06 | 0.0562 | 1.09 | 0.997 | 0.956 | 0.994 | 1.04 | 1.09 | 1.02 | 1.07 | 1.1
3 | EMC-BAC-2 | 0.94 | 1.03 | 1.07 | 1.09 | 0.655 | – | 0.967 | 1.13 | 1.13 | 0.994 | 1.31 | 0.916 | 0.738 | 1.05 | 0.971 | 1.41 | – | 1.08 | 1.02 | 0.927 | 1.12 | 0.999 | 1.03 | 1.18
4 | EKVX | 0.964 | 0.966 | 1.04 | 0.926 | 0.924 | 0.888 | 0.877 | 1.02 | 1.13 | 0.981 | 1.17 | 0.905 | 0.731 | 0.975 | 0.885 | 0.957 | 0.944 | 0.963 | 1.03 | 0.974 | 0.997 | 0.903 | 0.888 | 1.03
5 | NCI-H2170 | 0.969 | 1.02 | 0.973 | 0.947 | 0.965 | 1.08 | 0.976 | 1.02 | 1.05 | 1 | 1.02 | 0.848 | 0.971 | 1.07 | 0.946 | 0.997 | 0.992 | 0.968 | 1 | 0.946 | 1.05 | 1 | 0.911 | 0.991
6 | NCI-H2085 | 0.986 | 0.961 | 0.97 | 0.974 | 0.966 | 1.03 | 0.987 | 0.99 | 1.02 | 0.972 | 1.06 | 1 | 0.791 | 1.05 | 0.524 | 1.01 | 0.954 | 1.05 | 1.03 | 0.95 | 1.1 | 1.05 | 0.96 | 0.892
7 | LCLC-97TM1 | 0.978 | 0.973 | 0.969 | 0.953 | 1.04 | 0.725 | 0.81 | 1.11 | 1.03 | 0.864 | 0.845 | 0.738 | 1.03 | 0.963 | 0.468 | 0.979 | 0.86 | 1.06 | 1.04 | 0.971 | 0.962 | 0.929 | 0.794 | 1.09
